Where a SMILES comes first, the peptide text is derived from it. Bridges are numbered along the chain shown (N, C = ends). [ ]: non-standard residue; d: D form. The star is where a group is joined. ξ: configuration not given here. Phe(4-COOH) = N[C@@H](Cc1ccc(C(=O)O)cc1)C(=O)O; Bip = N[C@@H](Cc1ccc(-c2ccccc2)cc1)C(=O)O; Phe(3-Me) = Cc1cccc(C[C@H](N)C(=O)O)c1; hhGln = NC(=O)CCCC[C@H](N)C(=O)O; Cha = N[C@@H](CC1CCCCC1)C(=O)O; Cit = NC(=O)NCCC[C@H](N)C(=O)O; Thr(3ξ) = CC(O)[C@H](N)C(=O)O; hSer = N[C@@H](CCO)C(=O)O; Carboxymethyl = O=C(O)C*; NMeA = CN[C@@H](C)C(=O)O; Aun = NCCCCCCCCCCC(=O)O; Dab = NCC[C@H](N)C(=O)O; AEEA = NCCOCCOCC(=O)O

A word on the IC50: it is the concentration that gives 50% inhibition.

This experiment deals with T1, PD-1/PD-L1 interaction (PE-labeled human PD-L1-Ig binding to Jurkat cell line over-expressing human PD-1) (Homo sapiens, UniProt Q15116).
T1 construct: expressed in transfected cells; host or cells: Jurkat
T1 sequence (Q15116 25-288): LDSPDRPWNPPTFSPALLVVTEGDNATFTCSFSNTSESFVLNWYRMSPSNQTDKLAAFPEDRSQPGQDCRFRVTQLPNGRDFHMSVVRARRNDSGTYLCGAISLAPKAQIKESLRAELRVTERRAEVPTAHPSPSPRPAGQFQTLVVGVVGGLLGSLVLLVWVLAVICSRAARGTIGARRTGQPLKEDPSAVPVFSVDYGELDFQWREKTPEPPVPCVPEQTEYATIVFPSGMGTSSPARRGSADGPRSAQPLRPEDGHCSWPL
As to the kind of experiment: Jurkat-PD-1 Cell Binding High-Content Screening Assay (CBA). The following applies: Jurkat-hPD-1 cells, PE-labeled PD-L1-Ig 20 nM final; read-out: Jurkat HPD1 PDL1 IC50. The essentials:
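Read-out: high-content imaging of cell-bound PE fluorescence, with Hoechst 33342 nuclear counterstain after paraformaldehyde fixation. Before labeled ligand (20 nM final, 1 h) was added, compound sat on the cells for 2 h at 37 °C in DMEM/10% FCS.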
`Cc1cccc(C[C@@H]2NC(=O)[C@H](CC(=O)O)NC(=O)[C@H](Cc3ccc(OCC(=O)O)cc3)NC(=O)[C@H](C(C)O)NC(=O)CSC[C@@H](C(=O)N[C@@H](CCN)C(=O)NCCCCCCCCCCC(=O)O)NC(=O)[C@H](C(C)O)NC(=O)[C@H](C(C)C)NC(=O)[C@H](CC3CCCCC3)NC(=O)[C@H](CCN)NC(=O)[C@@H](CC(C)C)NC(=O)[C@H](C)N(C)C(=O)[C@H](CCCNC(N)=O)NC(=O)[C@H](Cc3ccc(-c4ccccc4)cc3)NC(=O)[C@H](C(C)C)NC2=O)c1` (stereo partly drawn) [Example 2336] ({CH2CO}-[Thr(3ξ)]Y(Carboxymethyl)D[Phe(3-Me)]V[Bip][Cit][NMeA][dL][Dab][Cha]V[Thr(3ξ)]C[Dab][Aun]-OH; thioether N-14): the IC50 was found to be 6.7 nM.

In the case of `Cc1cccc(C[C@@H]2NC(=O)[C@H](CC(=O)O)NC(=O)[C@H](Cc3ccc(OCC(=O)O)cc3)NC(=O)[C@H](C(C)O)NC(=O)CSC[C@@H](C(=O)N[C@H](CC(N)=O)C(=O)NCCCCCCCCCCC(=O)O)NC(=O)[C@H](C(C)O)NC(=O)[C@H](C(C)C)NC(=O)[C@H](CC3CCCCC3)NC(=O)[C@H](CCN)NC(=O)[C@@H](CC(C)C)NC(=O)[C@H](C)N(C)C(=O)[C@H](CCCNC(=N)N)NC(=O)[C@H](Cc3ccc(-c4ccccc4)cc3)NC(=O)[C@H](Cc3ccc(O)cc3)NC2=O)c1` (stereo partly drawn) [Example 2338] ({CH2CO}-[Thr(3ξ)]Y(Carboxymethyl)D[Phe(3-Me)]Y[Bip]R[NMeA][dL][Dab][Cha]V[Thr(3ξ)]C[dN][Aun]-OH; thioether N-14), the IC50 was 5.5 nM.

Consider `Cc1cccc(C[C@@H]2NC(=O)[C@H](CC(=O)O)NC(=O)[C@H](Cc3ccc(OCC(=O)O)cc3)NC(=O)[C@H](C(C)O)NC(=O)CSC[C@@H](C(=O)NCCOCCOCC(=O)NCCCCCCCCCCC(=O)O)NC(=O)[C@H](C(C)O)NC(=O)[C@H](C(C)C)NC(=O)[C@H](CC3CCCCC3)NC(=O)[C@H](CCN)NC(=O)[C@@H](CC(C)C)NC(=O)[C@H](C)N(C)C(=O)[C@H](Cc3ccc(OCC(=O)O)cc3)NC(=O)[C@H](Cc3ccc(-c4ccccc4)cc3)NC(=O)[C@H](Cc3ccc(OCC(=O)O)cc3)NC2=O)c1` (stereo partly drawn) [Example 2341] ({CH2CO}-[Thr(3ξ)]Y(Carboxymethyl)D[Phe(3-Me)]Y(Carboxymethyl)[Bip]Y(Carboxymethyl)[NMeA][dL][Dab][Cha]V[Thr(3ξ)]C[AEEA][Aun]-OH; thioether N-14), for which the IC50 came out at 41.7 nM.

For `Cc1cccc(C[C@@H]2NC(=O)[C@H](CC(=O)O)NC(=O)[C@H](Cc3ccc(OCC(=O)O)cc3)NC(=O)[C@H](CCCNC(=N)N)NC(=O)CSC[C@@H](C(=O)NCCOCCOCC(=O)NCCCCCCCCCCC(=O)O)NC(=O)[C@H](C(C)O)NC(=O)[C@H](C(C)C)NC(=O)[C@H](CC3CCCCC3)NC(=O)[C@H](CCN)NC(=O)[C@@H](CC(C)C)NC(=O)[C@H](C)N(C)C(=O)[C@H](Cc3ccc(OCC(=O)O)cc3)NC(=O)[C@H](Cc3ccc(-c4ccccc4)cc3)NC(=O)[C@H](Cc3ccc(OCC(=O)O)cc3)NC2=O)c1` (stereo partly drawn) [Example 2342] ({CH2CO}-RY(Carboxymethyl)D[Phe(3-Me)]Y(Carboxymethyl)[Bip]Y(Carboxymethyl)[NMeA][dL][Dab][Cha]V[Thr(3ξ)]C[AEEA][Aun]-OH; thioether N-14), the IC50 was 74.8 nM.

As to `Cc1cccc(C[C@@H]2NC(=O)[C@H](CC(=O)O)NC(=O)[C@H](Cc3ccc(OCC(=O)O)cc3)NC(=O)[C@H](C(C)O)NC(=O)CSC[C@@H](C(=O)NCCOCCOCC(=O)NCCCCCCCCCCC(=O)O)NC(=O)[C@H](C(C)O)NC(=O)[C@H](C(C)C)NC(=O)[C@H](CC3CCCCC3)NC(=O)[C@H](CCN)NC(=O)[C@@H](CC(C)C)NC(=O)[C@H](C)N(C)C(=O)[C@H](Cc3ccc(OCC(=O)O)cc3)NC(=O)[C@H](Cc3ccc(-c4ccccc4)cc3)NC(=O)[C@H](Cc3ccc(C(=O)O)cc3)NC2=O)c1` (stereo partly drawn) [Example 2343] ({CH2CO}-[Thr(3ξ)]Y(Carboxymethyl)D[Phe(3-Me)][Phe(4-COOH)][Bip]Y(Carboxymethyl)[NMeA][dL][Dab][Cha]V[Thr(3ξ)]C[AEEA][Aun]-OH; thioether N-14), the IC50 is 51.7 nM.

Take `Cc1cccc(C[C@@H]2NC(=O)[C@H](CC(=O)O)NC(=O)[C@H](Cc3ccc(OCC(=O)O)cc3)NC(=O)[C@H](C(C)O)NC(=O)CSC[C@@H](C(=O)NCCOCCOCC(=O)NCCCCCCCCCCC(=O)O)NC(=O)[C@H](C(C)O)NC(=O)[C@H](C(C)C)NC(=O)[C@H](CC3CCCCC3)NC(=O)[C@H](CCN)NC(=O)[C@@H](CC(C)C)NC(=O)[C@H](C)N(C)C(=O)[C@H](Cc3ccc(OCC(=O)O)cc3)NC(=O)[C@H](Cc3ccc(-c4ccccc4)cc3)NC(=O)[C@H](CCCCC(N)=O)NC2=O)c1` (stereo partly drawn) [Example 2345] ({CH2CO}-[Thr(3ξ)]Y(Carboxymethyl)D[Phe(3-Me)][hhGln][Bip]Y(Carboxymethyl)[NMeA][dL][Dab][Cha]V[Thr(3ξ)]C[AEEA][Aun]-OH; thioether N-14): the IC50 worked out at 67.5 nM.

Regarding `Cc1cccc(C[C@@H]2NC(=O)[C@H](CC(=O)O)NC(=O)[C@H](Cc3ccc(OCC(=O)O)cc3)NC(=O)[C@H](C(C)O)NC(=O)CSC[C@@H](C(=O)NCCOCCOCC(=O)NCCCCCCCCCCC(=O)O)NC(=O)[C@H](C(C)O)NC(=O)[C@H](C(C)C)NC(=O)[C@H](CC3CCCCC3)NC(=O)[C@H](CCN)NC(=O)[C@@H](CC(C)C)NC(=O)[C@H](C)N(C)C(=O)[C@H](Cc3ccc(OCC(=O)O)cc3)NC(=O)[C@H](Cc3ccc(-c4ccccc4)cc3)NC(=O)[C@H](C(C)C)NC2=O)c1` (stereo partly drawn) [Example 2346] ({CH2CO}-[Thr(3ξ)]Y(Carboxymethyl)D[Phe(3-Me)]V[Bip]Y(Carboxymethyl)[NMeA][dL][Dab][Cha]V[Thr(3ξ)]C[AEEA][Aun]-OH; thioether N-14), the IC50 was found to be 23.1 nM.

As to `Cc1cccc(C[C@@H]2NC(=O)[C@H](CC(=O)O)NC(=O)[C@H](Cc3ccc(OCC(=O)O)cc3)NC(=O)[C@H](C(C)O)NC(=O)CSC[C@@H](C(=O)N[C@@H](CCN)C(=O)NCCCCCCCCCCC(=O)O)NC(=O)[C@H](C(C)O)NC(=O)[C@H](C(C)C)NC(=O)[C@H](CC3CCCCC3)NC(=O)[C@H](CCN)NC(=O)[C@@H](CC(C)C)NC(=O)[C@H](C)N(C)C(=O)[C@H](Cc3ccc(OCC(=O)O)cc3)NC(=O)[C@H](Cc3ccc(-c4ccccc4)cc3)NC(=O)[C@H](Cc3ccc(C(=O)O)cc3)NC2=O)c1` (stereo partly drawn) [Example 2347] ({CH2CO}-[Thr(3ξ)]Y(Carboxymethyl)D[Phe(3-Me)][Phe(4-COOH)][Bip]Y(Carboxymethyl)[NMeA][dL][Dab][Cha]V[Thr(3ξ)]C[Dab][Aun]-OH; thioether N-14), the IC50 is 9.3 nM.

As to `Cc1cccc(C[C@@H]2NC(=O)[C@H](CC(=O)O)NC(=O)[C@H](Cc3ccc(OCC(=O)O)cc3)NC(=O)[C@H](C(C)O)NC(=O)CSC[C@@H](C(=O)N[C@@H](CCN)C(=O)NCCCCCCCCCCC(=O)O)NC(=O)[C@H](CCO)NC(=O)[C@H](C(C)C)NC(=O)[C@H](CC3CCCCC3)NC(=O)[C@H](CCN)NC(=O)[C@@H](CC(C)C)NC(=O)[C@H](C)N(C)C(=O)[C@H](Cc3ccc(OCC(=O)O)cc3)NC(=O)[C@H](Cc3ccc(-c4ccccc4)cc3)NC(=O)[C@H](CCCNC(N)=O)NC2=O)c1` (stereo partly drawn) [Example 2348] ({CH2CO}-[Thr(3ξ)]Y(Carboxymethyl)D[Phe(3-Me)][Cit][Bip]Y(Carboxymethyl)[NMeA][dL][Dab][Cha]V[hSer]C[Dab][Aun]-OH; thioether N-14), the IC50 was 30.1 nM.

For the molecule `Cc1cccc(C[C@@H]2NC(=O)[C@H](CC(=O)O)NC(=O)[C@H](Cc3ccc(OCC(=O)O)cc3)NC(=O)[C@H](CCCNC(=N)N)NC(=O)CSC[C@@H](C(=O)N[C@@H](CCN)C(=O)NCCCCCCCCCCC(=O)O)NC(=O)[C@H](C(C)O)NC(=O)[C@H](C(C)C)NC(=O)[C@H](CC3CCCCC3)NC(=O)[C@H](CCN)NC(=O)[C@@H](CC(C)C)NC(=O)[C@H](C)N(C)C(=O)[C@H](Cc3ccc(OCC(=O)O)cc3)NC(=O)[C@H](Cc3ccc(-c4ccccc4)cc3)NC(=O)[C@H](CCCNC(N)=O)NC2=O)c1` (stereo partly drawn) [Example 2349] ({CH2CO}-RY(Carboxymethyl)D[Phe(3-Me)][Cit][Bip]Y(Carboxymethyl)[NMeA][dL][Dab][Cha]V[Thr(3ξ)]C[Dab][Aun]-OH; thioether N-14), the IC50 was determined as 32.5 nM.

On to `Cc1cccc(C[C@@H]2NC(=O)[C@H](CC(=O)O)NC(=O)[C@H](Cc3ccc(OCC(=O)O)cc3)NC(=O)[C@H](CCCNC(=N)N)NC(=O)CSC[C@@H](C(=O)N[C@@H](CCN)C(=O)NCCCCCCCCCCC(=O)O)NC(=O)[C@H](CCO)NC(=O)[C@H](C(C)C)NC(=O)[C@H](CC3CCCCC3)NC(=O)[C@H](CCN)NC(=O)[C@@H](CC(C)C)NC(=O)[C@H](C)N(C)C(=O)[C@H](Cc3ccc(OCC(=O)O)cc3)NC(=O)[C@H](Cc3ccc(-c4ccccc4)cc3)NC(=O)[C@H](Cc3ccc(C(=O)O)cc3)NC2=O)c1` [Example 2350] ({CH2CO}-RY(Carboxymethyl)D[Phe(3-Me)][Phe(4-COOH)][Bip]Y(Carboxymethyl)[NMeA][dL][Dab][Cha]V[hSer]C[Dab][Aun]-OH; thioether N-14), for which the IC50 was 5.6 nM.

For `Cc1cccc(C[C@@H]2NC(=O)[C@H](CC(=O)O)NC(=O)[C@H](Cc3ccc(OCC(=O)O)cc3)NC(=O)[C@H](C(C)O)NC(=O)CSC[C@@H](C(=O)N[C@@H](CCN)C(=O)NCCCCCCCCCCC(=O)O)NC(=O)[C@H](CCO)NC(=O)[C@H](C(C)C)NC(=O)[C@H](CC3CCCCC3)NC(=O)[C@H](CCN)NC(=O)[C@@H](CC(C)C)NC(=O)[C@H](C)N(C)C(=O)[C@H](Cc3ccc(OCC(=O)O)cc3)NC(=O)[C@H](Cc3ccc(-c4ccccc4)cc3)NC(=O)[C@H](Cc3ccc(C(=O)O)cc3)NC2=O)c1` (stereo partly drawn) [Example 2352] ({CH2CO}-[Thr(3ξ)]Y(Carboxymethyl)D[Phe(3-Me)][Phe(4-COOH)][Bip]Y(Carboxymethyl)[NMeA][dL][Dab][Cha]V[hSer]C[Dab][Aun]-OH; thioether N-14), the IC50 is 14.5 nM.

(Values after patent US20260070945A1, “MACROCYCLIC IMMUNOMODULATORS” (Bristol-Myers Squibb Company, priority 2022, published 2026).)
